# Assay results from patent US20090305954A1, “HISTIDINE-CONTAINING DIASTEREOMERIC PEPTIDES AND USES THEREOF” (Yeda Research and Development Co. Ltd., priority 2005, published 2009).
# Square brackets hold non-standard residues; d marks the D form. Peptide text beside a SMILES is read from it.
# What was measured:
# [1] = tested on: MDA-MB-231 breast tumor metastases in lymph nodes and lungs; experiment: Inhibition of formation of lung and lymph node metastases derived from breast cancer; assay type: in vivo, SCID/NCr mice
# Description: Monitoring of solid metastases derived for breast tumor was done by in vivo fluorescence using IVIS as described above in (iii). At the end of the treatment (day 38), the mice were killed, and the lungs and lymph nodes were removed and monitored for fluorescence of metastases derived from the breast cancer. For metastases quantification, the lungs and right lymph nodes were excised and fixed in 4% buffered formaldehyde. Paraffin-embedded 5-μm sections were stained with H&E. The percentage of metastatic cell area of total section area was calculated using the Image-Pro plus 4.1 software. The dissected lungs and lymph nodes were analyzed by histology. […] Metastasis quantification was done according to areas from three different sections of each organ (P<0.005).
# [2] = tested on: 22RV1 human PC cells xenograft; experiment: Inhibition of tumor growth in human prostate cancer xenografts, 22RV1; assay type: in vivo, nude male mice; details: 22RV1 xenograft
# Protocol: (i) Inhibition of tumor growth in human prostate cancer xenografts. Subcutaneouse (s.c.) implantation of human PC cells in mice was done as previously described in Gavish et al. (Gavish et al. 2002). Briefly, 0.1 ml AI CL1 or 22RV1 human PC cells (5×10^6 cells) in Matrigel were inoculated s.c. into the dorsal side of five to six week-old nude male mice weighing 20-25 g (Harlen Co., Israel). Two weeks after cell implantation, when the tumors diameter reached ≧5 mm (denoted as day 1), the diastereomer 13 and its all L-amino acid analog peptide (at 1 mg/kg, 0.1 mM), or vehicle (PBS, pH=7.4) were injected intratumorally (dosing volume of 2.5 ml/kg) three times a week for a total of 9 doses. Tumor size was measured by a caliper and recorded twice a week during a period of 28 days. Mice were weighed and tumor weight (mg) was estimated by using the formula of length×width×depth×0.52 in mm^3, assuming the specific gravity to be 1. At the end of the treatment, the mice were killed, and the tumors were removed, photographed, and weighed. The animal experimentation was conducted according to the rules of the Institutional Animal Care and Use Committee.
# Serum PSA levels. Four weeks after the first treatment, blood was withdrawn from the 22RV1-inoculated mice in order to determine the level of prostate specific antigen (PSA). The blood samples were taken directly to heparin containing tubes, centrifuged, and the supernatants were stored at −20° C. The CanAg PSA EIA kit (CanAg Diagnostics) was used to determine the total PSA in the mice plasma (Gavish et al., 2002). Tumor weight and PSA levels, represented as the mean±SE, were calculated from the raw data and then subjected to Student's t test. A value of P<0.05 was considered as statistically significant.
# [3] = tested on: DU145 human prostate cancer cell line; experiment: XTT proliferation (cytotoxicity) assay, DU145; assay type: cell-based
# Protocol: (§1) The CL1 human prostate carcinoma (PC) cell line is an androgen-independent (AI) subclone of LNCaP cell line, which was generated by culturing androgen-dependent (AD) LNCaP cells in charcoal-stripped, […], as described (Patel et al. 2000). 22RV1 human PC cells are AI sub-clones of the AD prostatic adenocarcinoma CWR22 xenograft (Sramkoski et al. 1999). CL1 and 22RV1 (ATCC, USA) were grown in RPMI-1640 supplemented with 10% FCS (Biological Industries, Beit Haemek, Israel). PC3 and DU145 are androgen-insensitive (AI) (non-responsive), invasive human prostate cancer cell lines. NIH-3T3 mouse fibroblast cell lines (ATCC, USA) were grown in DMEM supplemented with 10% BS. Murine Lewis lung carcinoma (LLC) cell lines were also grown in DMEM medium supplemented with 10% fetal calf serum and antibiotics under the same conditions as above.
# (§2) The anticancer activity of the diastereomers 1, 5 and 11-16, 36-39, 42 and 44 was examined against human CL1 prostate cancer, murine LLC (Lewis lung carcinoma), DU 145 and PC3 cell lines. The cell selectivity of the diastereomeric peptides was also studied by examining their effect on NIH-3T3 normal mouse fibroblasts cell line.
# (§3) A 96-well plate (Falcon) was used for the XTT proliferation assay. Cancer cells were grown for 24 hours (day 1) in RPMI-1640 medium ([…] cells/100 μl for LLC, CL1, 22RVI, DU 145 and PC3, respectively) supplemented with 10% fetal calf serum and antibiotics, at 37° C., in humidified atmosphere at 5% CO2 and 95% air, resulting in growth medium pH of 7.4. NIH-3T3 fibroblast cells (1×10^4 cells/100 μl) were grown in DMEM medium supplemented with 10% bovine calf serum and antibiotics under the same conditions as described above for the cancerous cells. Wells in the last two rows served as blanks (medium only, for measuring the background color of the medium) and 100% survival controls (cells and medium only without treatment), respectively.
# (§4) In day 2, the peptides were dissolved in sterile PBS to a concentration of 200 μM (or 500 μM). The medium in the assay wells was replaced with 100 μl serum free medium. For the assays at pH 6, the medium was initially concentrated (×5 or ×10) and then diluted with double distilled water and addition of sodium carbonate. Before reaching the correct dilution, the medium was adjusted to pH 6 and then more water was added to reach the final dilution. The cells were grown in physiological pH, and the acidic pH was used only during the 24 hours incubation with the peptides. A sign for the correct acidity was a light yellow color of the medium. In line A of the plate, 160 μl of serum free medium was added, if the initial peptide concentration was 500 μM.
# (§5) Peptide solutions, 100 μl (or 40 μl) were added to each assay well in line A, such that the final concentration of the peptide was […] and the volume 200 μl. The medium in the wells was mixed with multichannel pipette 5 times and 100 μl of it were transferred to the next row of wells (line B), to give a peptide concentration of 50 μM. The double dilution of the peptides continued downstream the plate in the same manner. The plates were then incubated for 24 h.
# (§6) In day 3, XTT reaction solution was prepared by adding to 100 μl aliquots of activation solution (sodium 3′-[1-(phenyl-aminocarbonyl)-3,4-tetrazolium]-bis(4-methoxy-6-nitro) benzene sulfonic acid hydrate and N-methyl dibenzopyrazine methyl sulfate; mixed in a proportion of 50:1) (protected from light and kept in −20° C.), the substrate. 50 μl of XTT reaction solution were added to each well and the plates were incubated for 2 hours (37° C. and 5% CO2+95% air. In cases the incubation was not enough for the creation of the color, it was extended for up to 24 hours). The optical density was read at wavelength of 450 nm in an ELISA plate reader. Cell viability was determined relative to the control and final results were recorded. The results were confirmed using replications in at least three independent experiments. […]
# [4] = tested on: Murine Lewis lung carcinoma (LLC) cell line; experiment: XTT proliferation (cytotoxicity) assay, LLC; assay type: cell-based
# Protocol: as §1, §2, §3, §4, §5, §6
structure (smiles),measurement,setting,value
CC(C)C[C@H](NC(=O)[C@H](CC(C)C)NC(=O)[C@@H](CCCCN)NC(=O)[C@H](CC(C)C)NC(=O)[C@H](CC(C)C)NC(=O)[C@H](Cc1c[nH]cn1)NC(=O)[C@@H](CCCCN)NC(=O)[C@@H](CC(C)C)NC(=O)[C@H](CC(C)C)NC(=O)[C@@H](CCCCN)NC(=O)[C@H](Cc1c[nH]cn1)NC(=O)[C@H](CC(C)C)NC(=O)[C@@H](CC(C)C)NC(=O)[C@H](CCCCN)NC(=O)[C@@H](N)CC(C)C)C(N)=O [Peptide 13] (H-LK[dL]LH[dK]L[dL][dK]HLL[dK]LL-NH2),lymph node metastasis fluorescence intensity,[1]; systemic administration,significant reduction
same,histology of lungs and lymph nodes: population by cancer cells,"[1]; vs control untreated mice, P<0.005",much less densely populated
same,tumor weight,"[2]; 1 mg/kg intratumorally, 9 doses",significant reduction
same,PSA serum levels,[2]; four weeks after first treatment,marked decrease
same,Lethal Concentration (LC50),"[3]; DU145, pH 6, 24 h",18.7 µg/mL
same,Lethal Concentration (LC50),"[3]; DU145, pH 7.4, 24 h",25 µg/mL
same,Lethal Concentration (LC50),"[4]; pH 6, 24 h",12.5 µg/mL
same,Lethal Concentration (LC50),"[4]; pH 7.4, 24 h",12.5 µg/mL
